Experimental data: publication PMC4957904, “A novel validated assay to support the discovery of new anti-malarial gametocytocidal agents” (Malaria Journal, 2016)
pIC50: −log10 of the molar value. Entries after “also recorded” stand apart in the source; their conditions may differ.

Key:
[1] = tested on: late-stage (stage V) Plasmodium falciparum gametocytes; experiment: Cidal vs static activity assay by qPCR of late-stage gametocyte-specific mRNA (Pf77, ROM3, Pfg377); type: cell-based; settings: for cidal vs static effect against late-stage gametocytes (mRNA profile T∞ vs T48) / increase in Ct values, constant drug pressure (T∞) / decrease in mRNA levels (fold change), constant drug pressure (T∞) / increase in Ct values after drug removal (T48): Pf77 coding gene; for cidal vs static effect against late-stage gametocytes (mRNA profile T∞ vs T48): 144 h, concentrations of Table 1; for increase in Ct values, constant drug pressure (T∞) / decrease in mRNA levels (fold change), constant drug pressure (T∞): drug present for 144 h (T∞); for increase in Ct values, constant drug pressure (T∞): 20 × IC50 (EX 2 × IC50); for decrease in mRNA levels (fold change), constant drug pressure (T∞): from Ct increase; for reduction of mRNA levels after drug removal (T48): drug present only 48 h (T48), from Ct values; for increase in Ct values after drug removal (T48): drug present 48 h, then 96 h without drug (T48)
Procedure: The in vitro cidal or static anti-malarial activity of a compound against the later stages of gametocyte development at day 15 was assessed by measuring mRNA levels in P.falciparum over 144 h following drug treatment (Fig. 1). Drug activity assays were performed once in two independent cultures in T-75 flasks (Corning, NY, USA). Late-stage gametocytes were incubated with drug and 6 % haematocrit over 48 h. […] IC50 values were obtained from Lelievre et al.. To remove drug from the medium, parasite cultures were harvested and washed two times with 25 ml of RPMI. After drug removal, the parasites were cultured for a further 96 h with complete culture medium either without or with drug, at the same concentration as the initial incubation, to evaluate the reversibility of the compound effect. Medium was changed daily and two samples of 1000 µl of culture at 0, 48, 96, and 144 h were taken, centrifuged and immediately stored at −80 °C for further analysis. An untreated culture was used as a […].
Fig. 1 Scheme showing the cidal vs static in vitro activity assay against stage V Plasmodium falciparum gametocytes. Gametocytes were incubated for 48 h with 20 × IC50. After drug was washed out, the parasites were cultured for 96 h with complete culture medium with drug (A) or without drug (B) to evaluate the reversibility of compound effects. Two samples at t = 0, 48, 96, and 144 h were taken for RNA extraction, cDNA synthesis and qPCR amplification. Comparison of mRNA levels of treated P. falciparum cultures upon removal of the drug was used to assess the cidal vs static activity
For RNA extraction, RNeasy Plus mini kit (Qiagen, Hilden, Germany) was used according to the standard protocol supplied by the manufacturer. cDNA synthesis and SYBR green qPCR were performed in duplicate following the protocol already published by Bahamontes-Rosa et al.. Melting curve analysis was always performed at the end of each assay as a specificity control.
Threshold cycle (Ct) values from the measurement of the cDNA samples were obtained in duplicate using the 7000 and the 7500 fast system Software (Applied Biosystem) and further analysed using an excel data sheet (Microsoft Corporation). The average value was taken as the result and only duplicate Ct values within ±1 Ct difference were accepted. Ct values were used to quantify the relative amount of target PCR product present in each reaction; values are inversely proportional to the amount of template in the sample.
Gene expression during gametocytogenesis was represented with an adaptation of the method described by Livak and Schmittgen as (Ctgene−Ct18S rRNA)Ttime […](Ctgene−Ct18S rRNA)T0, considering the expression at time 0 (T0) as the basal expression and using the 18S rRNA gene as housekeeping gene. Absolute quantification (direct comparison of Ct values) was considered the most appropriate method for the drug activity assays.
Two different treatments were performed in parallel, one with constant drug pressure throughout the experiment (T∞), 144 h in total, and another in which the gametocyte cultures were exposed to the compound for only 48 h, the drug was washed out and then cultured for a further 96 h in fresh complete culture medium (T48) (see Fig. 1).

[2] = tested on: 3D7A P. falciparum mature gametocytes; set-up: method as in PMID 22514702; settings: ATP bioluminescence assay, read-out: P.f. gametocytes IC50; cited from earlier work
[3] = tested on: late-stage (stage V) Plasmodium falciparum gametocytes; experiment: Cidal vs static activity assay by qPCR of late-stage gametocyte-specific mRNA (Pf77, ROM3, Pfg377); type: cell-based; settings: Pf77 coding gene; 48 h drug treatment only; TCMDC-125114 at 100 × IC50; CQ at 2, 20 and 125 × asexual IC50
[4] = cytotoxicity, short-term resazurin-based reductase assay; cited from earlier work
oocysts = tested on: oocysts; set-up: method as in PMID 26317851; settings: SMFA ex vivo, assayed at 2.5 µM; cited from earlier work

## CCN(CC)CCCC(C)Nc1ccnc2cc(Cl)ccc12 (centres unmarked) [Chloroquine, reference compound]
[1]
  cidal vs static effect against late-stage gametocytes (mRNA profile T∞ vs T48): did not affect mature gametocytes
[2]
  pIC50: 4.63
[3]
  effect on Ct values at increasing concentrations, 48 h drug exposure (minimal gametocytocidal concentration): no Ct increase

## C[C@H]1[C@@H](O)O[C@@H]2O[C@@]3(C)CC[C@H]4[C@H](C)CC[C@@H]1[C@@]24OO3 [Dihydroartemisinin, reference compound]
[1]
  cidal vs static effect against late-stage gametocytes (mRNA profile T∞ vs T48): static
  increase in Ct values, constant drug pressure (T∞): at least 5 Ct
  decrease in mRNA levels (fold change), constant drug pressure (T∞): ≥ 100 fold
  reduction of mRNA levels after drug removal (T48): less than tenfold
[4]
  TOX50: >50 µM
[2]
  pIC50: 5.45

## CC[C@H](C)[C@H](NC(=O)[C@H]([C@@H](C)CC)N(C)C(C)=O)C(=O)N[C@H](C(=O)N[C@@H](CC(C)C)C(=O)[C@@]1(C)CO1)[C@@H](C)O [Epoxomicin, reference compound]
[1]
  cidal vs static effect against late-stage gametocytes (mRNA profile T∞ vs T48): static
  increase in Ct values, constant drug pressure (T∞): at least 5 Ct
  decrease in mRNA levels (fold change), constant drug pressure (T∞): ≥ 100 fold
  reduction of mRNA levels after drug removal (T48): less than tenfold
[4]
  TOX50: 0.003 µM
[2]
  pIC50: 9.30

## CN(C)c1ccc2nc3ccc(=[N+](C)C)cc-3sc2c1 [Methylene blue, reference compound]
[1]
  cidal vs static effect against late-stage gametocytes (mRNA profile T∞ vs T48): cidal
[4]
  TOX50: 6.52 µM
[2]
  pIC50: 6.31

## CNC(=S)NN=C(C)c1ccccn1 [TCMDC-123475]
[1]
  cidal vs static effect against late-stage gametocytes (mRNA profile T∞ vs T48): prolonged reduction in mRNA levels only when the drug was continuously present
  increase in Ct values, constant drug pressure (T∞): 7 Ct
  decrease in mRNA levels (fold change), constant drug pressure (T∞): more than 100 fold
[4]
  TOX50: >25 µM
[2]
  pIC50: 8.01

## Cc1[nH]c2ccccc2c1C(=O)C(C)Sc1n[nH]c(-c2ccccc2Br)n1 (centres unmarked) [TCMDC-125114]
[1]
  cidal vs static effect against late-stage gametocytes (mRNA profile T∞ vs T48): prolonged reduction in mRNA levels only when the drug was continuously present
  increase in Ct values, constant drug pressure (T∞): 7 Ct
  decrease in mRNA levels (fold change), constant drug pressure (T∞): more than 100 fold
[4]
  TOX50: >50 µM
oocysts
  reduction in the number of oocysts: 100%
[2]
  pIC50: 6.89
[3]
  effect on Ct values at increasing concentrations, 48 h drug exposure (minimal gametocytocidal concentration): cidal activity

## COc1cccc(NC(=O)[C@H](C(C)C)n2c(=O)[nH]c3ccccc3c2=O)c1 [TCMDC-125133]
[1]
  cidal vs static effect against late-stage gametocytes (mRNA profile T∞ vs T48): prolonged reduction in mRNA levels only when the drug was continuously present
  increase in Ct values, constant drug pressure (T∞): 7 Ct
  decrease in mRNA levels (fold change), constant drug pressure (T∞): more than 100 fold
[4]
  TOX50: >50 µM
oocysts
  reduction in the number of oocysts: 100%
[2]
  pIC50: 6.27

## CC(C)c1ccc(NC(=S)NN=Cc2ccccn2)cc1 [TCMDC-125520]
[1]
  cidal vs static effect against late-stage gametocytes (mRNA profile T∞ vs T48): static; also recorded: prolonged reduction in mRNA levels only when the drug was continuously present
  increase in Ct values after drug removal (T48): ≤ 2 Ct
  increase in Ct values, constant drug pressure (T∞): ~5 Ct
  decrease in mRNA levels (fold change), constant drug pressure (T∞): ca. 100 fold
  reduction of mRNA levels after drug removal (T48): less than tenfold
[4]
  TOX50: 12.80 µM
[2]
  pIC50: 8.01

## Br.Cc1ccnc(Nc2nc(-c3ccccn3)cs2)c1 [TCMDC-125769]
[1]
  cidal vs static effect against late-stage gametocytes (mRNA profile T∞ vs T48): static; also recorded: prolonged reduction in mRNA levels only when the drug was continuously present
  increase in Ct values after drug removal (T48): ≤ 2 Ct
  increase in Ct values, constant drug pressure (T∞): ~5 Ct
  decrease in mRNA levels (fold change), constant drug pressure (T∞): ca. 100 fold
  reduction of mRNA levels after drug removal (T48): less than tenfold
[4]
  TOX50: >25 µM
[2]
  pIC50: 7.40

## CN1CCOc2ccc(Nc3nnc(-c4cccc(-c5cccnc5)c4)o3)cc2C1 [TCMDC-134278]
[4]
  TOX50: 19.95 µM
[2]
  pIC50: < 5.30

## CCNCc1cccc(-c2ccc3ccnc(N)c3c2)c1 [TCMDC-136869]
[4]
  TOX50: 12.59 µM
[2]
  pIC50: 5.78

## C=C(NC(=O)C(=C)NC(=O)c1csc(C2=N[C@@H]3c4csc(n4)[C@H]4NC(=O)c5csc(n5)[C@H]([C@](C)(O)[C@@H](C)O)NC(=O)[C@H]5CSC(=N5)/C(=C/C)NC(=O)[C@H]([C@@H](C)O)NC(=O)c5csc(n5)[C@]3(CC2)NC(=O)[C@H](C)NC(=O)C(=C)NC(=O)[C@H](C)NC(=O)[C@H]([C@@H](C)CC)N[C@@H]2C=Cc3c([C@H](C)O)cc(nc3[C@H]2O)C(=O)O[C@@H]4C)n1)C(N)=O [Thiostrepton, reference compound]
[1]
  cidal vs static effect against late-stage gametocytes (mRNA profile T∞ vs T48): static
  increase in Ct values, constant drug pressure (T∞): at least 5 Ct
  decrease in mRNA levels (fold change), constant drug pressure (T∞): ≥ 100 fold
  reduction of mRNA levels after drug removal (T48): less than tenfold
[2]
  pIC50: 6.05
